Reference: the NIST ThermoML archive (doi:10.1016/j.jct.2015.04.006)

Assay: mn = molality of the nth substance listed, in mol/kg
Details: 100 kPa, Liquid; for speed of sound: Frequency=3 MHz, Sing-around technique in a fixed-path interferometer; for mass density: Vibrating tube method

CCCCCCCC[N+]1(C)CCOCC1.O=S(=O)([N-]S(=O)(=O)C(F)(F)F)C(F)(F)F + C[S+](C)[O-]
Details | mass density, 298.15 K [kg/m3] | mass density, 303.15 K [kg/m3] | mass density, 308.15 K [kg/m3] | mass density, 313.15 K [kg/m3] | mass density, 318.15 K [kg/m3] | speed of sound, 298.15 K [m/s] | speed of sound, 303.15 K [m/s] | speed of sound, 308.15 K [m/s] | speed of sound, 313.15 K [m/s] | speed of sound, 318.15 K [m/s]
m1 = 0.0104 | 1096.19 | 1091.17 | 1086.16 | 1081.14 | 1076.13 | 1483.5 | 1466.6 | 1449.8 | 1433 | 1416.5
m1 = 0.01752 | 1096.81 | 1091.79 | 1086.78 | 1081.77 | 1076.76 | 1482.7 | 1465.8 | 1449 | 1432.3 | 1415.8
m1 = 0.0266 | 1097.59 | 1092.58 | 1087.57 | 1082.56 | 1077.56 | 1481.7 | 1464.8 | 1448.1 | 1431.4 | 1414.9
m1 = 0.03779 | 1098.55 | 1093.54 | 1088.53 | 1083.53 | 1078.53 | 1480.5 | 1463.7 | 1446.9 | 1430.2 | 1413.8
m1 = 0.04989 | 1099.57 | 1094.57 | 1089.57 | 1084.57 | 1079.57 | 1479.2 | 1462.4 | 1445.7 | 1429 | 1412.6
m1 = 0.06889 | 1101.17 | 1096.17 | 1091.17 | 1086.18 | 1081.19 | 1477.2 | 1460.4 | 1443.7 | 1427.1 | 1410.8
m1 = 0.08629 | 1102.6 | 1097.62 | 1092.62 | 1087.64 | 1082.65 | 1475.3 | 1458.6 | 1441.9 | 1425.4 | 1409.1
m1 = 0.1068 | 1104.29 | 1099.3 | 1094.32 | 1089.34 | 1084.36 | 1473.2 | 1456.5 | 1439.9 | 1423.4 | 1407.1
m1 = 0.1403 | 1106.96 | 1101.99 | 1097.02 | 1092.04 | 1087.08 | 1469.8 | 1453.1 | 1436.6 | 1420.2 | 1404
m1 = 0.1703 | 1109.31 | 1104.34 | 1099.38 | 1094.41 | 1089.45 | 1466.8 | 1450.2 | 1433.8 | 1417.4 | 1401.2

CCCC[N+]1(C)CCOCC1.O=S(=O)([N-]S(=O)(=O)C(F)(F)F)C(F)(F)F + C[S+](C)[O-]
Details | mass density, 298.15 K [kg/m3] | mass density, 303.15 K [kg/m3] | mass density, 308.15 K [kg/m3] | mass density, 313.15 K [kg/m3] | mass density, 318.15 K [kg/m3] | speed of sound, 298.15 K [m/s] | speed of sound, 303.15 K [m/s] | speed of sound, 308.15 K [m/s] | speed of sound, 313.15 K [m/s] | speed of sound, 318.15 K [m/s]
m1 = 0.01276 | 1096.62 | 1091.6 | 1086.58 | 1081.57 | 1076.55 | 1483.5 | 1466.6 | 1449.8 | 1433.1 | 1416.5
m1 = 0.01778 | 1097.14 | 1092.12 | 1087.11 | 1082.09 | 1077.08 | 1483 | 1466.2 | 1449.3 | 1432.6 | 1416.1
m1 = 0.02681 | 1098.08 | 1093.06 | 1088.05 | 1083.03 | 1078.02 | 1482.2 | 1465.4 | 1448.6 | 1431.9 | 1415.4
m1 = 0.04025 | 1099.46 | 1094.44 | 1089.43 | 1084.42 | 1079.41 | 1481 | 1464.2 | 1447.5 | 1430.8 | 1414.3
m1 = 0.05498 | 1100.96 | 1095.95 | 1090.94 | 1085.93 | 1080.93 | 1479.7 | 1462.9 | 1446.2 | 1429.6 | 1413.1
m1 = 0.06956 | 1102.43 | 1097.42 | 1092.42 | 1087.41 | 1082.41 | 1478.5 | 1461.7 | 1445 | 1428.4 | 1412
m1 = 0.08753 | 1104.23 | 1099.22 | 1094.22 | 1089.22 | 1084.22 | 1476.9 | 1460.1 | 1443.5 | 1426.9 | 1410.6
m1 = 0.1103 | 1106.47 | 1101.47 | 1096.47 | 1091.48 | 1086.48 | 1475 | 1458.2 | 1441.6 | 1425.1 | 1408.8
m1 = 0.1334 | 1108.73 | 1103.73 | 1098.73 | 1093.74 | 1088.75 | 1472.9 | 1456.3 | 1439.7 | 1423.3 | 1407
m1 = 0.1687 | 1112.1 | 1107.11 | 1102.12 | 1097.13 | 1092.14 | 1470 | 1453.4 | 1436.9 | 1420.5 | 1404.4

CC[N+]1(C)CCOCC1.O=S(=O)([N-]S(=O)(=O)C(F)(F)F)C(F)(F)F + C[S+](C)[O-]
Details | mass density, 298.15 K [kg/m3] | mass density, 303.15 K [kg/m3] | mass density, 308.15 K [kg/m3] | mass density, 313.15 K [kg/m3] | mass density, 318.15 K [kg/m3] | speed of sound, 298.15 K [m/s] | speed of sound, 303.15 K [m/s] | speed of sound, 308.15 K [m/s] | speed of sound, 313.15 K [m/s] | speed of sound, 318.15 K [m/s]
m1 = 0.01623 | 1097.17 | 1092.15 | 1087.13 | 1082.12 | 1077.11 | 1483.4 | 1466.5 | 1449.7 | 1433 | 1416.4
m1 = 0.02434 | 1098.11 | 1093.09 | 1088.07 | 1083.06 | 1078.05 | 1482.8 | 1465.9 | 1449.1 | 1432.4 | 1415.9
m1 = 0.03937 | 1099.83 | 1094.82 | 1089.8 | 1084.79 | 1079.78 | 1481.6 | 1464.8 | 1448 | 1431.3 | 1414.9
m1 = 0.04917 | 1100.95 | 1095.93 | 1090.92 | 1085.91 | 1080.9 | 1480.9 | 1464 | 1447.3 | 1430.7 | 1414.2
m1 = 0.063 | 1102.51 | 1097.5 | 1092.49 | 1087.48 | 1082.47 | 1479.8 | 1463 | 1446.3 | 1429.7 | 1413.3
m1 = 0.07874 | 1104.28 | 1099.27 | 1094.26 | 1089.26 | 1084.25 | 1478.6 | 1461.8 | 1445.2 | 1428.6 | 1412.2
m1 = 0.09932 | 1106.57 | 1101.56 | 1096.55 | 1091.55 | 1086.55 | 1477 | 1460.3 | 1443.7 | 1427.2 | 1410.8
m1 = 0.1197 | 1108.8 | 1103.8 | 1098.79 | 1093.79 | 1088.79 | 1475.5 | 1458.8 | 1442.3 | 1425.8 | 1409.5
m1 = 0.1515 | 1112.25 | 1107.24 | 1102.24 | 1097.25 | 1092.25 | 1473.2 | 1456.5 | 1440 | 1423.6 | 1407.4
